In the experiment the test system is HEK293T cells carrying the ATF4 luciferase reporter. Description: ATF4-Luc assay (in vitro model of VWMD). The conditions noted are these: Homo sapiens, HEK-293T; HEK293T cells with ATF4 5'-UTR firefly luciferase reporter; 1 μg/mL tunicamycin; 7 hours; One Glo luminescence. It counts as cell-based. The procedure: In order to test exemplary compounds of the invention in a cellular context, a stable VWMD cell line was first constructed. The ATF4 reporter was prepared by fusing the human full-length ATF4 5′-UTR (NCBI Accession No. BC022088.2) in front of the firefly luciferase (FLuc) coding sequence lacking the initiator methionine as described in Sidrauski et al (eLife 2013). The construct was used to produce recombinant retroviruses using standard methods and the resulting viral supernatant was used to transduce HEK293T cells, which were then subsequently selected with puromycin to generate a stable cell line.
HEK293T cells carrying the ATF4 luciferase reporter were plated on polylysine coated 384-well plates (Greiner Bio-one) at 30,000 cells per well. Cells were treated the next day with 1 μg/mL tunicamycin and 200 nM of a compound of Formula (I) for 7 hours. Luminescence was measured using One Glo (Promega) as specified by the manufacturer. Cells were maintained in DMEM with L-glutamine supplemented with 10% heat-inactivated FBS (Gibco) and Antibiotic-Antimycotic solution (Gibco).
Table 2 below summarizes the EC50 data obtained using the ATF4-Luc assay for exemplary compounds of the invention.
What is called EC50 is the concentration that produces a half-maximal response. Consider `O=C(COc1ccc(Cl)c(F)c1)N[C@H]1CC[C@H](C(=O)N2CCN(c3ccc(Cl)cc3)C(=O)C2)CC1` [Compound 125, 2-(4-chloro-3-fluorophenoxy)-N-{(1r,4r)-4-[4-(4-chlorophenyl)-3-oxopiperazine-1-carbonyl]cyclohexyl}acetamide], for which the EC50 was in the range of 250 to 500 nM. In the case of `O=C(COc1ccc(Cl)c(F)c1)N[C@H]1CC[C@H](C(=O)N2CCN(c3cccc(Cl)c3)C(=O)C2)CC1` [Compound 126, 2-(4-chloro-3-fluorophenoxy)-N-{(1r,4r)-4-[4-(3-chlorophenyl)-3-oxopiperazine-1-carbonyl]cyclohexyl}acetamide], the EC50 lay within 500 to 2000 nM. Regarding `O=C(COc1ccc(Cl)c(F)c1)N[C@H]1CC[C@H](C(=O)N2CCN(c3ccc(Cl)cc3)CC2)CC1` [Compound 127, 2-(4-chloro-3-fluorophenoxy)-N-{(1r,4r)-4-[4-(4-chlorophenyl)piperazine-1-carbonyl]cyclohexyl}acetamide], the EC50 was over 2000 nM. The figure for `O=C(COc1ccc(Cl)c(F)c1)N[C@H]1CC[C@H](C(=O)N2CCC(c3ccc(Cl)cc3)CC2)CC1` [Compound 128, 2-(4-chloro-3-fluorophenoxy)-N-{(1r,4r)-4-[4-(4-chlorophenyl)piperidine-1-carbonyl]cyclohexyl}acetamide] is over 2000 nM; for `O=C(COc1ccc(Cl)c(F)c1)N[C@H]1CC[C@H](C(=O)N2CC(c3ccc(Cl)cc3)C2)CC1` [Compound 129, 2-(4-chloro-3-fluorophenoxy)-N-{(1r,4r)-4-[3-(4-chlorophenyl)azetidine-1-carbonyl]cyclohexyl}acetamide] it is under 10 nM; for `O=C(COc1ccc(Cl)c(F)c1)N[C@H]1CC[C@H](C(=O)N2CC(O)(c3ccc(Cl)cc3)C2)CC1` [Compound 130, 2-(4-chloro-3-fluorophenoxy)-N-{(1r,4r)-4-[3-(4-chlorophenyl)-3-hydroxyazetidine-1-carbonyl]cyclohexyl}acetamide] it is 50 to 250 nM. Consider `O=C(COc1ccc(Cl)c(F)c1)N[C@H]1CC[C@H](C(=O)N2CC(c3ccccc3)C2)CC1` [Compound 131, 2-(4-chloro-3-fluorophenoxy)-N-[(1r,4r)-4-(3-phenylazetidine-1-carbonyl)cyclohexyl]acetamide], for which the concentration giving a half-maximal response (EC50) lay in the range of 10 to 50 nM. The figure for `O=C(COc1ccc(Cl)c(F)c1)N[C@H]1CC[C@H](C(=O)N2Cc3ccc(Cl)cc3C2)CC1` [Compound 132, N-[(1r,4r)-4-(5-chloro-1,3-dihydro-2H-isoindole-2-carbonyl)cyclohexyl]-2-(4-chloro-3-fluorophenoxy)acetamide] is 10 to 50 nM.

With `O=C(COc1ccc(Cl)c(F)c1)N[C@H]1CC[C@@H](C(=O)N2CC(c3ccc(Cl)cc3)C2)CC1` [Compound 133, 2-(4-chloro-3-fluorophenoxy)-N-{(1s,4s)-4-[3-(4-chlorophenyl)azetidine-1-carbonyl]cyclohexyl}acetamide], the EC50 was over 2000 nM. Consider `O=C(COc1ccc(Cl)c(F)c1)N[C@@H]1CC[C@@H](C(=O)N2CC(c3ccc(C(F)(F)F)cc3)C2)OC1` [Compound 134, 2-(4-chloro-3-fluorophenoxy)-N-[(3R,6S)-6-{3-[4-(trifluoromethyl)phenyl]azetidine-1-carbonyl}oxan-3-yl]acetamide], for which the EC50 is under 10 nM. The figure for `O=C(COc1ccc(Cl)c(F)c1)N[C@@H]1CC[C@@H](C(=O)NCc2nc(C(F)(F)F)c[nH]2)OC1` [Compound 135, (2S,5R)-5-[2-(4-chloro-3-fluorophenoxy)acetamido]-N-{[4-(trifluoromethyl)-1H-imidazol-2-yl]methyl}oxane-2-carboxamide] is 50 to 250 nM. For the compound `Cc1cc(CNC(=O)[C@@H]2CC[C@@H](NC(=O)COc3ccc(Cl)c(F)c3)CO2)n(C)n1` [Compound 136, (2S,5R)-5-[2-(4-chloro-3-fluorophenoxy)acetamido]-N-[(1,3-dimethyl-1H-pyrazol-5-yl)methyl]oxane-2-carboxamide], the EC50 was over 2000 nM.

On to `O=C(COc1ccc(Cl)c(F)c1)N[C@@H]1CC[C@@H](C(=O)NCCOc2ccc(Cl)cc2)OC1` [Compound 137, (2S,5R)-5-[2-(4-chloro-3-fluorophenoxy)acetamido]-N-[2-(4-chlorophenoxy)ethyl]oxane-2-carboxamide], for which the EC50 fell in the range of 10 to 50 nM. In the case of `O=C(COc1ccc(Cl)c(F)c1)N[C@@H]1CC[C@@H](C(=O)NCc2cn3ccc(Cl)cc3n2)OC1` [Compound 138, (2S,5R)-5-[2-(4-chloro-3-fluorophenoxy)acetamido]-N-[(7-chloroimidazo[1,2-a]pyridin-2-yl)methyl]oxane-2-carboxamide] it was 10 to 50 nM; in that of `O=C(COc1ccc(Cl)c(F)c1)N[C@@H]1CC[C@@H](C(=O)NCc2cnc(C(F)(F)F)nc2)OC1` [Compound 139, (2S,5R)-5-[2-(4-chloro-3-fluorophenoxy)acetamido]-N-{[2-(trifluoromethyl)pyrimidin-5-yl]methyl}oxane-2-carboxamide], 250 to 500 nM. In the case of `COc1ncc(CNC(=O)[C@@H]2CC[C@@H](NC(=O)COc3ccc(Cl)c(F)c3)CO2)cn1` [Compound 140, (2S,5R)-5-[2-(4-chloro-3-fluorophenoxy)acetamido]-N-[(2-methoxypyrimidin-5-yl)methyl]oxane-2-carboxamide] it was over 2000 nM. With `O=C(COc1ccc(Cl)c(F)c1)N[C@@H]1CC[C@@H](C(=O)NC2(c3ccc(Cl)cc3)CC2)OC1` [Compound 141, (2S,5R)-5-[2-(4-chloro-3-fluorophenoxy)acetamido]-N-[1-(4-chlorophenyl)cyclopropyl]oxane-2-carboxamide], the EC50 was over 2000 nM. Regarding `O=C(COc1ccc(Cl)c(F)c1)N[C@@H]1CC[C@@H](C(=O)NCc2cc3cc(Cl)ccc3[nH]2)OC1` [Compound 142, (2S,5R)-5-[2-(4-chloro-3-fluorophenoxy)acetamido]-N-[(5-chloro-1H-indol-2-yl)methyl]oxane-2-carboxamide], the EC50 was 50 to 250 nM. In the case of `O=C(COc1ccc(Cl)c(F)c1)N[C@@H]1CC[C@@H](C(=O)N2CCC(c3ccc(Cl)cc3)C2)OC1` (stereo partly drawn) [Compound 143, 2-(4-chloro-3-fluorophenoxy)-N-{(3R,6S)-6-[3-(4-chlorophenyl)pyrrolidine-1-carbonyl]oxan-3-yl}acetamide] it was 500 to 2000 nM; in that of `O=C(COc1ccc(Cl)c(F)c1)N[C@@H]1CC[C@@H](C(=O)N2CCn3c(nnc3C(F)(F)F)C2)OC1` [Compound 144, 2-(4-chloro-3-fluorophenoxy)-N-{(3R,6S)-6-[3-(trifluoromethyl)-5,6-dihydro[1,2,4]triazolo[4,3-a]pyrazine-7(8H)-carbonyl]oxan-3-yl}acetamide], over 2000 nM; in that of `O=C(COc1ccc(Cl)c(F)c1)N[C@@H]1CC[C@@H](C(=O)Nc2nccc(-c3ccc(Cl)c(F)c3)n2)OC1` [Compound 145, (2S,5R)-5-[2-(4-chloro-3-fluorophenoxy)acetamido]-N-[4-(4-chloro-3-fluorophenyl)pyrimidin-2-yl]oxane-2-carboxamide], 500 to 2000 nM. The figure for `O=C(COc1ccc(Cl)c(F)c1)N[C@@H]1CC[C@@H](C(=O)NCCc2ccc(Cl)cc2)OC1` [Compound 146, (2S,5R)-5-[2-(4-chloro-3-fluorophenoxy)acetamido]-N-[2-(4-chlorophenyl)ethyl]oxane-2-carboxamide] is 50 to 250 nM. On to `O=C(COc1ccc(C(F)(F)F)nc1)N[C@H]1CC[C@H](C(=O)NCc2nc3cc(Cl)ccc3[nH]2)CC1` [Compound 147, (1r,4r)-N-[(5-chloro-1H-benzimidazol-2-yl)methyl]-4-(2-{[6-(trifluoromethyl)pyridin-3-yl]oxy}acetamido)cyclohexane-1-carboxamide], for which the EC50 was over 2000 nM.

As to `O=C(COc1ccc2c(c1)OC(F)(F)O2)N[C@H]1CC[C@H](C(=O)NCc2nc3cc(Cl)ccc3[nH]2)CC1` [Compound 148, (1r,4r)-N-[(5-chloro-1H-benzimidazol-2-yl)methyl]-4-{2-[(2,2-difluoro-2H-1,3-benzodioxol-5-yl)oxy]acetamido}cyclohexane-1-carboxamide], the EC50 is 50 to 250 nM. In the case of `O=C(COc1ccc(F)c(F)c1)N[C@H]1CC[C@H](C(=O)NCc2nc3cc(Cl)ccc3[nH]2)CC1` [Compound 149, (1r,4r)-N-[(5-chloro-1H-benzimidazol-2-yl)methyl]-4-[2-(3,4-difluorophenoxy)acetamido]cyclohexane-1-carboxamide] it was 50 to 250 nM; in that of `O=C(COc1ccc(Cl)c(F)c1)N[C@H]1CC[C@H](C(=O)NCc2nc3cc(Cl)ccc3[nH]2)CC1` [Compound 150, (1r,4r)-N-[(5-chloro-1H-benzimidazol-2-yl)methyl]-4-[2-(4-chloro-3-fluorophenoxy)acetamido]cyclohexane-1-carboxamide], 10 to 50 nM; in that of `O=C(COc1ccc(Cl)c(Cl)c1)N[C@H]1CC[C@H](C(=O)NCc2nc3cc(F)c(F)cc3[nH]2)CC1` [Compound 152, (1r,4r)-4-[2-(3,4-dichlorophenoxy)acetamido]-N-[(5,6-difluoro-1H-benzimidazol-2-yl)methyl]cyclohexane-1-carboxamide], over 2000 nM. With `O=C(COc1ccc(Cl)c(F)c1)N[C@H]1CC[C@H](C(=O)NCc2nc3cc(F)c(F)cc3[nH]2)CC1` [Compound 153, (1r,4r)-4-[2-(4-chloro-3-fluorophenoxy)acetamido]-N-[(5,6-difluoro-1H-benzimidazol-2-yl)methyl]cyclohexane-1-carboxamide], the EC50 was over 2000 nM.

These data come from patent US11939320B2, “Modulators of the integrated stress pathway” (Calico Life Sciences LLC, priority 2017, dated 2024).
